System: IIIB (HIV IIIB virus)
Experiment: Study 4 sensitization, Turpin and standard macrophages: RT activity after IIIB challenge
Assay type: cell-based
Description: Percent virus control (% VC) in the following tables is the mean RT activity (cpm) as a percentage of a virus control. Percent cell control (% CC) is the mean XTT absorbance as a percentage of a cell control.
Reverse transcriptase (RT) activity was measured in cell-free supernatants. Tritiated thymidine triphosphate (NEN) (TTP) was resuspended in distilled H2O at […]. Poly rA and oligo dT were prepared as a stock solution which was kept at −20° C. The RT reaction buffer was prepared fresh on a daily basis and consists of 125 μL 1.0 M EGTA, 125 μL d H2O, 110 μL 10% SDS, 50 μL 1.0 M Tris (pH 7.4), 50 μL 1.0 M DTT, and 40μ1.0 M MgCl2. These three solutions were mixed together in a ratio of 2 parts TTP, 1 part poly rA:oligo dT, and 1 part reaction buffer. Ten microliters of this reaction mixture was placed in a round bottom microtiter plate and 15 μL of virus containing supernatant was added and mixed. The plate was incubated at 37° C. in a water bath with a solid support to prevent submersion of the plate and incubated for 60 minutes. Following reaction, the reaction volume was spotted onto pieces of DE81 paper, washed 5 times for 5 minutes each in a 5% sodium phosphate buffer, 2 times for 1 minute each in distilled water, 2 times for 1 minute each in 70% ethanol, and then dried. Opti-Fluor O was added to each sample and incorporated radioactivity was quantitated utilizing a Wallace 1450 Microbetaplus liquid scintillation counter.
The macrophage plates were then washed with HBSS multiple times. Fresh mixed pha blast PBMCs (5×10e4/well) were placed on the macrophage cells, allowed to incubate for 72 hours and then harvested and reset in a fresh 96 well plate. The PBMCs were then challenged overnight with the respective virus (IIIB or Rojo) at a standard MOI for that virus. The PBMCs were 5× in plate spin washed with DPBS, incubated 24 hours, at which time 5×10e4 fresh pha blast PBMCs/well were added. The culture was incubated an additional 6 days and then assayed for RT activity.
Where viability corrections were conducted, they were performed by dividing the RT CPM value by the toxicity absorbance in order to compensate for well to well variations noted in the cell titer toxicity noted.

Hyaluronidase was tested, and the “RT activity % VC” value (0.097656 μg/mL, GP120IIIB Sensitized, Standard) was 176.4%, the “RT activity % VC” value (0.097656 μg/mL, GP120IIIB Sensitized, Turpin) was 89.0% and the “RT activity % VC” value (0.097656 μg/mL, IIIB Sensitized, Standard) was 145.2%. For the same substance, the “RT activity % VC” value (0.097656 μg/mL, IIIB Sensitized, Turpin) was 98.7%, the “RT activity % VC” value (0.195313 μg/mL, GP120IIIB Sensitized, Standard) was 102.8% and the “RT activity % VC” value (0.195313 μg/mL, GP120IIIB Sensitized, Turpin) was 108.1%. The “RT activity % VC” value (0.195313 μg/mL, IIIB Sensitized, Standard) was 178.1%, the “RT activity % VC” value (0.195313 μg/mL, IIIB Sensitized, Turpin) was 95.8% and the “RT activity % VC” value (0.390625 μg/mL, GP120IIIB Sensitized, Standard) was 87.7%. The “RT activity % VC” value (0.390625 μg/mL, GP120IIIB Sensitized, Turpin) was 83.5%, the “RT activity % VC” value (0.390625 μg/mL, IIIB Sensitized, Standard) was 181.3% and the “RT activity % VC” value (0.78125 μg/mL, GP120IIIB Sensitized, Standard) was 94.5%. The “RT activity % VC” value (0.78125 μg/mL, GP120IIIB Sensitized, Turpin) was 105.6%, the “RT activity % VC” value (0.78125 μg/mL, IIIB Sensitized, Standard) was 129.9% and the “RT activity % VC” value (0.78125 μg/mL, IIIB Sensitized, Turpin) was 100.0%. For the same substance, the “RT activity % VC” value (1.5625 μg/mL, GP120IIIB Sensitized, Standard) was 100.7%, the “RT activity % VC” value (1.5625 μg/mL, GP120IIIB Sensitized, Turpin) was 58.0% and the “RT activity % VC” value (1.5625 μg/mL, IIIB Sensitized, Standard) was 203.0%. The “RT activity % VC” value (1.5625 μg/mL, IIIB Sensitized, Turpin) was 68.3%, the “RT activity % VC” value (3.125 μg/mL, GP120IIIB Sensitized, Standard) was 82.3% and the “RT activity % VC” value (3.125 μg/mL, GP120IIIB Sensitized, Turpin) was 71.2%. The “RT activity % VC” value (3.125 μg/mL, IIIB Sensitized, Standard) was 120.8%, the “RT activity % VC” value (6.25 μg/mL, GP120IIIB Sensitized, Standard) was 106.5% and the “RT activity % VC” value (6.25 μg/mL, GP120IIIB Sensitized, Turpin) was 72.2%. For the same substance, the “RT activity % VC” value (6.25 μg/mL, IIIB Sensitized, Standard) was 234.4%, the “RT activity % VC” value (6.25 μg/mL, IIIB Sensitized, Turpin) was 70.0% and the “RT activity % VC” value (25 μg/mL, GP120IIIB Sensitized, Standard) was 70.6%. For the same substance, the “RT activity % VC” value (25 μg/mL, GP120IIIB Sensitized, Turpin) was 52.1%, the “RT activity % VC” value (25 μg/mL, IIIB Sensitized, Standard) was 99.8% and the “RT activity % VC” value (25 μg/mL, IIIB Sensitized, Turpin) was 23.6%. The “RT activity % VC” value (viability corrected, 0.097656 μg/mL, GP120IIIB Sensitized, Standard) was 105.6%, the “RT activity % VC” value (viability corrected, 0.097656 μg/mL, GP120IIIB Sensitized, Turpin) was 116.0% and the “RT activity % VC” value (viability corrected, 0.097656 μg/mL, IIIB Sensitized, Standard) was 103.7%. The “RT activity % VC” value (viability corrected, 0.097656 μg/mL, IIIB Sensitized, Turpin) was 95.3%, the “RT activity % VC” value (viability corrected, 0.195313 μg/mL, GP120IIIB Sensitized, Standard) was 83.8% and the “RT activity % VC” value (viability corrected, 0.195313 μg/mL, GP120IIIB Sensitized, Turpin) was 111.2%. The “RT activity % VC” value (viability corrected, 0.195313 μg/mL, IIIB Sensitized, Standard) was 141.1%, the “RT activity % VC” value (viability corrected, 0.195313 μg/mL, IIIB Sensitized, Turpin) was 110.9% and the “RT activity % VC” value (viability corrected, 0.390625 μg/mL, GP120IIIB Sensitized, Standard) was 74.2%. The “RT activity % VC” value (viability corrected, 0.390625 μg/mL, GP120IIIB Sensitized, Turpin) was 122.4%, the “RT activity % VC” value (viability corrected, 0.390625 μg/mL, IIIB Sensitized, Standard) was 177.8% and the “RT activity % VC” value (viability corrected, 0.390625 μg/mL, IIIB Sensitized, Turpin) was 98.3%. For the same substance, the “RT activity % VC” value (viability corrected, 0.78125 μg/mL, GP120IIIB Sensitized, Standard) was 100.5%, the “RT activity % VC” value (viability corrected, 0.78125 μg/mL, GP120IIIB Sensitized, Turpin) was 115.4% and the “RT activity % VC” value (viability corrected, 0.78125 μg/mL, IIIB Sensitized, Standard) was 117.6%. The “RT activity % VC” value (viability corrected, 0.78125 μg/mL, IIIB Sensitized, Turpin) was 95.5%, the “RT activity % VC” value (viability corrected, 1.5625 μg/mL, GP120IIIB Sensitized, Standard) was 97.2% and the “RT activity % VC” value (viability corrected, 1.5625 μg/mL, GP120IIIB Sensitized, Turpin) was 74.4%. The “RT activity % VC” value (viability corrected, 1.5625 μg/mL, IIIB Sensitized, Standard) was 189.1%, the “RT activity % VC” value (viability corrected, 1.5625 μg/mL, IIIB Sensitized, Turpin) was 79.6% and the “RT activity % VC” value (viability corrected, 3.125 μg/mL, GP120IIIB Sensitized, Standard) was 76.1%. For the same substance, the “RT activity % VC” value (viability corrected, 3.125 μg/mL, GP120IIIB Sensitized, Turpin) was 79.0%, the “RT activity % VC” value (viability corrected, 3.125 μg/mL, IIIB Sensitized, Standard) was 115.2% and the “RT activity % VC” value (viability corrected, 3.125 μg/mL, IIIB Sensitized, Turpin) was 106.2%. The “RT activity % VC” value (viability corrected, 6.25 μg/mL, GP120IIIB Sensitized, Standard) was 95.2%, the “RT activity % VC” value (viability corrected, 6.25 μg/mL, GP120IIIB Sensitized, Turpin) was 96.0% and the “RT activity % VC” value (viability corrected, 6.25 μg/mL, IIIB Sensitized, Standard) was 181.7%. For the same substance, the “RT activity % VC” value (viability corrected, 6.25 μg/mL, IIIB Sensitized, Turpin) was 63.4%, the “RT activity % VC” value (viability corrected, 25 μg/mL, GP120IIIB Sensitized, Standard) was 81.6% and the “RT activity % VC” value (viability corrected, 25 μg/mL, GP120IIIB Sensitized, Turpin) was 54.1%. For the same substance, the “RT activity % VC” value (viability corrected, 25 μg/mL, IIIB Sensitized, Standard) was 124.6% and the “RT activity % VC” value (viability corrected, 25 μg/mL, IIIB Sensitized, Turpin) was 26.6%.
